{"source": "PubChem BioAssay (NCI)", "test_in_all_cases": "NCI anticancer screen, dose series, 48 h", "key": {"[1]": {"system": "RXF 393 renal"}, "[2]": {"system": "MDA-N"}, "[3]": {"system": "786-0 renal"}, "[4]": {"system": "CAKI-1 renal"}, "[5]": {"system": "K-562 leukemia"}, "[6]": {"system": "SF-295 CNS"}, "[7]": {"system": "SK-OV-3 ovarian"}, "[8]": {"system": "SK-MEL-5 melanoma"}, "[9]": {"system": "M14 melanoma"}, "[10]": {"system": "SNB-75 CNS"}, "[11]": {"system": "MCF7 breast"}, "[12]": {"system": "HCT-15 colon"}, "[13]": {"system": "UACC-62 melanoma"}, "[14]": {"system": "SK-MEL-28 melanoma"}, "[15]": {"system": "NCI/ADR-RES ovarian"}, "[16]": {"system": "U251 CNS"}, "[17]": {"system": "MALME-3M melanoma"}, "[18]": {"system": "OVCAR-3 ovarian"}, "[19]": {"system": "BT-549 breast"}, "[20]": {"system": "NCI-H460 lung"}, "[21]": {"system": "SR leukemia"}, "[22]": {"system": "COLO 205 colon"}, "[23]": {"system": "MDA-MB-231 breast"}, "[24]": {"system": "HOP-62 NSCLC"}, "[25]": {"system": "MDA-MB-435"}, "[26]": {"system": "SK-MEL-2 melanoma"}, "[27]": {"system": "DU-145 prostate"}, "[28]": {"system": "SW-620 colon"}, "[29]": {"system": "A549 NSCLC"}, "[30]": {"system": "UACC-257 melanoma"}, "[31]": {"system": "SF-539 CNS"}, "[32]": {"system": "T-47D breast"}, "[33]": {"system": "HCC-2998 colon"}, "[34]": {"system": "ACHN renal"}, "[35]": {"system": "SNB-19 CNS"}, "[36]": {"system": "LOX IMVI melanoma"}, "[37]": {"system": "RPMI-8226 leukemia"}, "[38]": {"system": "HCT-116 colon"}, "[39]": {"system": "IGROV1 ovarian"}, "[40]": {"system": "KM12 colon"}, "[41]": {"system": "HOP-92 NSCLC"}, "[42]": {"system": "A498 renal"}, "[43]": {"system": "MOLT-4 leukemia"}, "[44]": {"system": "OVCAR-8 ovarian"}, "[45]": {"system": "OVCAR-4 ovarian"}, "[46]": {"system": "PC-3 prostate"}, "[47]": {"system": "NCI-H226 lung"}, "[48]": {"system": "NCI-H522 lung"}, "[49]": {"system": "SN12C renal"}, "[50]": {"system": "HS 578T breast"}, "[51]": {"system": "NCI-H23 lung"}, "[52]": {"system": "CCRF-CEM leukemia"}, "[53]": {"system": "SF-268 CNS"}, "[54]": {"system": "TK-10 renal"}, "[55]": {"system": "M19-MEL melanoma"}, "[56]": {"system": "UO-31 renal"}, "[57]": {"system": "SNB-78 CNS"}, "[58]": {"system": "KM20L2 colon"}, "[59]": {"system": "HT29 colon"}, "[60]": {"system": "LXFL 529 NSCLC"}, "[61]": {"system": "OVCAR-5 ovarian"}, "[62]": {"system": "DMS 114 small cell lung"}}, "note": "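A five-concentration, 48-hour dose response in 96-well plates underlies each endpoint, interpolated linearly between surrounding concentrations. TGI denotes the concentration required for complete inhibition of growth.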", "data": [{"compound": "OC1c2ccccc2CCC1CN1CCN(CCOC(c2ccc(F)cc2)c2ccc(F)cc2)CC1", "note": "(stereo unspecified)", "values": [{"measurement": "TGI", "setting": "[1]", "result": 19.3, "unit": "µM"}, {"measurement": "TGI", "setting": "[2]", "result": 36.3, "unit": "µM"}, {"measurement": "TGI", "setting": "[3]", "result": 25, "unit": "µM"}, {"measurement": "TGI", "setting": "[4]", "result": "> 100", "unit": "µM"}, {"measurement": "TGI", "setting": "[5]", "result": 27.5, "unit": "µM"}, {"measurement": "TGI", "setting": "[6]", "result": 46.1, "unit": "µM"}, {"measurement": "TGI", "setting": "[7]", "result": "> 100", "unit": "µM"}, {"measurement": "TGI", "setting": "[8]", "result": 16.5, "unit": "µM"}, {"measurement": "TGI", "setting": "[9]", "result": 27.6, "unit": "µM"}, {"measurement": "TGI", "setting": "[10]", "result": 70.5, "unit": "µM"}, {"measurement": "TGI", "setting": "[11]", "result": 30.8, "unit": "µM"}, {"measurement": "TGI", "setting": "[12]", "result": 23.4, "unit": "µM"}, {"measurement": "TGI", "setting": "[13]", "result": 27.7, "unit": "µM"}, {"measurement": "TGI", "setting": "[14]", "result": 26.6, "unit": "µM"}, {"measurement": "TGI", "setting": "[15]", "result": 35.3, "unit": "µM"}, {"measurement": "TGI", "setting": "[16]", "result": 28.3, "unit": "µM"}, {"measurement": "TGI", "setting": "[17]", "result": 32.4, "unit": "µM"}, {"measurement": "TGI", "setting": "[18]", "result": 42.6, "unit": "µM"}, {"measurement": "TGI", "setting": "[19]", "result": 25.1, "unit": "µM"}, {"measurement": "TGI", "setting": "[20]", "result": 48, "unit": "µM"}, {"measurement": "TGI", "setting": "[21]", "result": "> 100", "unit": "µM"}, {"measurement": "TGI", "setting": "[22]", "result": 3.44, "unit": "µM"}, {"measurement": "TGI", "setting": "[23]", "result": 31.6, "unit": "µM"}, {"measurement": "TGI", "setting": "[24]", "result": 60.5, "unit": "µM"}, {"measurement": "TGI", "setting": "[25]", "result": 80.1, "unit": "µM"}, {"measurement": "TGI", "setting": "[26]", "result": 36.3, "unit": "µM"}, {"measurement": "TGI", "setting": "[27]", "result": 61.4, "unit": "µM"}, {"measurement": "TGI", "setting": "[28]", "result": 38.2, "unit": "µM"}, {"measurement": "TGI", "setting": "[29]", "result": "> 100", "unit": "µM"}, {"measurement": "TGI", "setting": "[30]", "result": 35.3, "unit": "µM"}, {"measurement": "TGI", "setting": "[31]", "result": 20.1, "unit": "µM"}, {"measurement": "TGI", "setting": "[32]", "result": 52.9, "unit": "µM"}, {"measurement": "TGI", "setting": "[33]", "result": 18.9, "unit": "µM"}, {"measurement": "TGI", "setting": "[34]", "result": "> 100", "unit": "µM"}, {"measurement": "TGI", "setting": "[35]", "result": "> 100", "unit": "µM"}, {"measurement": "TGI", "setting": "[36]", "result": 27.1, "unit": "µM"}, {"measurement": "TGI", "setting": "[37]", "result": 64.4, "unit": "µM"}, {"measurement": "TGI", "setting": "[38]", "result": 20.8, "unit": "µM"}, {"measurement": "TGI", "setting": "[39]", "result": 61.9, "unit": "µM"}, {"measurement": "TGI", "setting": "[40]", "result": "> 100", "unit": "µM"}, {"measurement": "TGI", "setting": "[41]", "result": 24.4, "unit": "µM"}, {"measurement": "TGI", "setting": "[42]", "result": 26.9, "unit": "µM"}, {"measurement": "TGI", "setting": "[43]", "result": "> 100", "unit": "µM"}, {"measurement": "TGI", "setting": "[44]", "result": 28.5, "unit": "µM"}, {"measurement": "TGI", "setting": "[45]", "result": "> 100", "unit": "µM"}, {"measurement": "TGI", "setting": "[46]", "result": "> 100", "unit": "µM"}, {"measurement": "TGI", "setting": "[47]", "result": 28.3, "unit": "µM"}, {"measurement": "TGI", "setting": "[48]", "result": 33.6, "unit": "µM"}, {"measurement": "TGI", "setting": "[49]", "result": 27.3, "unit": "µM"}, {"measurement": "TGI", "setting": "[50]", "result": 45.8, "unit": "µM"}, {"measurement": "TGI", "setting": "[51]", "result": 32.2, "unit": "µM"}, {"measurement": "TGI", "setting": "[52]", "result": 15.1, "unit": "µM"}, {"measurement": "TGI", "setting": "[53]", "result": 39, "unit": "µM"}, {"measurement": "TGI", "setting": "[54]", "result": 42.4, "unit": "µM"}]}, {"compound": "COc1cc2c(cc1OC)C1C(=O)c3c(O)cc4c(c3OC1CO2)C=CC(C)(C)O4", "note": "(stereo unspecified)", "values": [{"measurement": "TGI", "setting": "[4]", "result": "> 100", "unit": "µM"}, {"measurement": "TGI", "setting": "[55]", "result": 61.4, "unit": "µM"}, {"measurement": "TGI", "setting": "[7]", "result": "> 100", "unit": "µM"}, {"measurement": "TGI", "setting": "[8]", "result": 25.3, "unit": "µM"}, {"measurement": "TGI", "setting": "[9]", "result": 76.3, "unit": "µM"}, {"measurement": "TGI", "setting": "[10]", "result": 96.4, "unit": "µM"}, {"measurement": "TGI", "setting": "[12]", "result": "> 100", "unit": "µM"}, {"measurement": "TGI", "setting": "[13]", "result": 52.3, "unit": "µM"}, {"measurement": "TGI", "setting": "[14]", "result": "> 100", "unit": "µM"}, {"measurement": "TGI", "setting": "[16]", "result": 93.2, "unit": "µM"}, {"measurement": "TGI", "setting": "[17]", "result": 72.9, "unit": "µM"}, {"measurement": "TGI", "setting": "[18]", "result": 65.5, "unit": "µM"}, {"measurement": "TGI", "setting": "[20]", "result": 93.1, "unit": "µM"}, {"measurement": "TGI", "setting": "[56]", "result": 59.2, "unit": "µM"}, {"measurement": "TGI", "setting": "[21]", "result": "> 100", "unit": "µM"}, {"measurement": "TGI", "setting": "[57]", "result": "> 100", "unit": "µM"}, {"measurement": "TGI", "setting": "[58]", "result": 89.5, "unit": "µM"}, {"measurement": "TGI", "setting": "[24]", "result": 55.6, "unit": "µM"}, {"measurement": "TGI", "setting": "[26]", "result": 50.7, "unit": "µM"}, {"measurement": "TGI", "setting": "[59]", "result": "> 100", "unit": "µM"}, {"measurement": "TGI", "setting": "[28]", "result": "> 100", "unit": "µM"}, {"measurement": "TGI", "setting": "[29]", "result": "> 100", "unit": "µM"}, {"measurement": "TGI", "setting": "[31]", "result": "> 100", "unit": "µM"}, {"measurement": "TGI", "setting": "[34]", "result": "> 100", "unit": "µM"}, {"measurement": "TGI", "setting": "[36]", "result": 38.8, "unit": "µM"}, {"measurement": "TGI", "setting": "[38]", "result": 70.6, "unit": "µM"}, {"measurement": "TGI", "setting": "[39]", "result": "> 100", "unit": "µM"}, {"measurement": "TGI", "setting": "[40]", "result": 68.3, "unit": "µM"}, {"measurement": "TGI", "setting": "[41]", "result": 74.5, "unit": "µM"}, {"measurement": "TGI", "setting": "[42]", "result": "> 100", "unit": "µM"}, {"measurement": "TGI", "setting": "[60]", "result": 94, "unit": "µM"}, {"measurement": "TGI", "setting": "[61]", "result": "> 100", "unit": "µM"}, {"measurement": "TGI", "setting": "[48]", "result": 5.45, "unit": "µM"}, {"measurement": "TGI", "setting": "[49]", "result": "> 100", "unit": "µM"}, {"measurement": "TGI", "setting": "[62]", "result": 25.7, "unit": "µM"}, {"measurement": "TGI", "setting": "[53]", "result": "> 100", "unit": "µM"}, {"measurement": "TGI", "setting": "[54]", "result": "> 100", "unit": "µM"}]}]}
